Experimental findings from patent EP2468728A1, “2-(1-phenyl-4,5,6,7-tetrahydro-1H-indazol-4-YL)ethylamine derivatives useful as sigma receptor inhibitors” (Laboratorios del. Dr. Esteve, S.A., priority 2010, dated 2012) are described below.

σ1-receptor, sequence (Q60492 whole entry): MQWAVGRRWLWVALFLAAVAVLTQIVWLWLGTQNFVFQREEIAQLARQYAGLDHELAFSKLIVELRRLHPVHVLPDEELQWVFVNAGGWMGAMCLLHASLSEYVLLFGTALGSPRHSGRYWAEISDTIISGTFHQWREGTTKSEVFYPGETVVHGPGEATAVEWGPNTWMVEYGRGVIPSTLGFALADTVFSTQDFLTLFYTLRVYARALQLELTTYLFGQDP

The assay has as its target σ1-receptor (Cavia porcellus, UniProt Q60492). In words: sigma-1 receptor binding assay, [3H](+)-pentazocine, brain membranes. The settings on record: 1µM compound; [3H](+)-pentazocine 0.5 nM; guinea pig brain membranes; 37°C for 150 min; read-out: binding sigma-1 % Inh (1µM). The procedure:
Some representative compounds of the invention were tested for their activity as sigma (sigma-1) inhibitors. The following protocols were followed:
Brain membrane preparation and binding assays for the σ1-receptor were performed as described (DeHaven-Hudkins et al., 1992) with some modifications. In brief, guinea pig brains were homogenized in 10 vols. (w/v) of Tris-HCl 50 mM 0.32 M sucrose, pH 7.4, with a Kinematica Polytron PT 3000 at 15000 r.p.m. for 30 s. The homogenate was centrifuged at 1000g for 10 min at 4°C and the supernatants collected and centrifuged again at 48000g for 15 min at 4°C. The pellet was resuspended in 10 volumes of Tris-HCl buffer (50 mM, pH 7.4), incubated at 37°C for 30 min, and centrifuged at 48000g for 20 min at 4°C. Following this, the pellet was resuspended in fresh Tris-HCl buffer (50 mM, pH 7.4) and stored on ice until use.
Each assay tube contained 10 µL of [^3H](+)-pentazocine (final concentration of 0.5 nM), 900 µL of the tissue suspension to a final assay volume of 1 mL and a final tissue concentration of approximately 30 mg tissue net weight/mL. Non-specific binding was defined by addition of a final concentration of 1 µM haloperidol. All tubes were incubated at 37°C for 150 min before termination of the reaction by rapid filtration over Schleicher & Schuell GF 3362 glass fibre filters [previously soaked in a solution of 0,5% polyethylenimine for at least 1 h]. Filters were then washed with four times with 4 mL of cold Tris-HCl buffer (50 mM, pH 7.4). Following addition of scintillation cocktail, the samples were allowed to equilibrate overnight. The amount of bound radioactivity was determined by liquid scintillation spectrometry using a Wallac Winspectral 1414 liquid scintillation counter. Protein concentrations were determined by the method of Lowry et al. (1951).
As to `[O-][N+]1(CCC2CCCc3c2cnn3-c2ccccc2)CCOCC1` (stereo not drawn) [Example 1, 4-(2-(1-phenyl-4,5,6,7-tetrahydro-1H-indazol-4-yl)ethyl)morpholine N-oxide], the inhibition at 1 µM was found to be 60%. With `[O-][N+]1(CC[C@H]2CCCc3c2cnn3-c2ccccc2)CCOCC1` [Example 3, (R)-4-(2-(1-phenyl-4,5,6,7-tetrahydro-1H-indazol-4-yl)ethyl)morpholine N-oxide], the inhibition at 1 µM stood at 76.4%. Next, `[O-][N+]1(CC[C@@H]2CCCc3c2cnn3-c2ccccc2)CCOCC1` [Example 5, (S)-4-(2-(1-phenyl-4,5,6,7-tetrahydro-1H-indazol-4-yl)ethyl)morpholine N-oxide]: 98%.
